The record followed here is paper PMC6474360 (Biochemistry, 2018).

What all share (type): binding
The target in test [1] is sperm whale myoglobin (ferrous Mb^II), H64Q mutant (Physeter macrocephalus, UniProt P02185, D123N/H65Q). As to the kind of experiment: UV-vis titration.
Test [2] deals with sperm whale myoglobin (ferric Mb^III), wild-type (Physeter macrocephalus, UniProt P02185, D123N). As to the kind of experiment: UV-vis titration.
The target in test [3] is sperm whale myoglobin (ferrous Mb^II), V68A/I107Y mutant (Physeter macrocephalus, UniProt P02185, D123N/I108Y/V69A). As to the kind of experiment: UV-vis titration.
Test [4] addresses sperm whale myoglobin (ferric Mb^III), H64A mutant (Physeter macrocephalus, UniProt P02185, D123N/H65A). As to the kind of experiment: X-ray crystal structure.

Molecules are shown by their SMILES. Bounds are passed on as bounds.

Sequence of sperm whale myoglobin (ferrous Mb^II), H64Q mutant (P02185 whole entry H65Q/D123N): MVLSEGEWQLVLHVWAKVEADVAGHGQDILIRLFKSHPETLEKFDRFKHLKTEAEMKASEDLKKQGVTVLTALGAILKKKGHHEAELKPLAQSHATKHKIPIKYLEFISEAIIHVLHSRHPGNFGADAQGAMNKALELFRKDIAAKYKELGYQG
Sequence of sperm whale myoglobin (ferric Mb^III), H64A mutant (P02185 whole entry H65A/D123N): as the sequence (P02185 whole entry H65Q/D123N) above, with Q65A counted along it
Sequence of sperm whale myoglobin (ferrous Mb^II), V68A/I107Y mutant (P02185 whole entry V69A/I108Y/D123N): as the sequence (P02185 whole entry H65Q/D123N) above, with Q65H, V69A, I108Y counted along it
Sequence of sperm whale myoglobin (ferric Mb^III), wild-type (P02185 whole entry D123N): as the sequence (P02185 whole entry H65Q/D123N) above, with Q65H counted along it

`O=NO` [nitrite]: the Kd (usually the concentration at which binding is half-saturated) in test [1] is 1.45 ± 0.3 mM; in test [2], 12.2 ± 2.2 mM; in test [3], 19.4 ± 0.6 mM; in test [4] it was > 20 mM.
